Results from PMC4222822, “Discovery and Characterization of a Potent and Selective Inhibitor of Aedes aegypti Inward Rectifier Potassium Channels” (PLoS ONE, 2014).

Legend:
AeKir1 = AeKir1 (Aedes aegypti, UniProt L0EQS9); test: Whole-cell patch clamp electrophysiology of T-REx-HEK293-AeKir1 cells; type: cell-based
Experimental: T-REx-HEK293-AeKir1 cells were voltage clamped in the whole-cell configuration of the patch clamp technique after overnight induction with tetracycline (1 µg/ml) essentially as described earlier. Briefly, patch electrodes were pulled from silanized 1.5 mm outer diameter borosilicate microhematocrit tubes using a Narishige PC-10 two-stage puller. Electrode resistance ranged from 3.5 to 5.5 MΩ when filled with the following intracellular solution (in mM): 135 KCl, 2 MgCl2, 1 EGTA, 10 HEPES free acid, 2 Na2ATP (Roche, Indianapolis, IN), pH 7.3, 275 mOsm. The standard bath solution contained (in mM): 135 NaCl, 5 KCl, 2 CaCl2, 1 MgCl2, 5 glucose, 10 HEPES free acid, pH 7.4, 290 mOsm. Whole-cell currents were recorded under voltage-clamp conditions using an Axopatch 200B amplifier (Molecular Devices, Sunnyvale, CA). Electrical connections to the amplifier were made using Ag/AgCl wires and 3 M KCl/agar bridges. Electrophysiological data were collected at 5 kHz and filtered at 1 kHz. Data acquisition and analysis were performed using pClamp 9.2 software (Axon Instruments). All recordings were made at room temperature (20–23°C).

Kir2.3 = target: T1, Kir2.3 (Homo sapiens, UniProt P48050); test: Tl+ flux selectivity assay, Kir2.3; type: cell-based; details: n = 2 independent experiments in triplicate, read-out: Inhibition of Tl+ flux (IC50)
T1 construct: expressed in transfected cells
T1 sequence (P48050 1-445): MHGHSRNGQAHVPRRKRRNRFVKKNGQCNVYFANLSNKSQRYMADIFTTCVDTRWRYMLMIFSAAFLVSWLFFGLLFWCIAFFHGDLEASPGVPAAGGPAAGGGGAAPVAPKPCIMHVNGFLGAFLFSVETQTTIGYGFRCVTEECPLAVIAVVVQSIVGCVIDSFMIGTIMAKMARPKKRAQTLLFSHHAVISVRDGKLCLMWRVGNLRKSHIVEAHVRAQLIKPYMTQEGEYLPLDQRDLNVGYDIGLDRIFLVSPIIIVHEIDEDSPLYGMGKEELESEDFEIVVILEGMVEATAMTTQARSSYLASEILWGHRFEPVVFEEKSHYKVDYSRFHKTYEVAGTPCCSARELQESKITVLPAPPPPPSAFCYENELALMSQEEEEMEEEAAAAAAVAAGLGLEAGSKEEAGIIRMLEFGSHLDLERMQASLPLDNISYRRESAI
Experimental: [Worded in the source for another target; used here, by the source, with some conditions changed.] Tl^+ flux assays were performed essentially as described previously, [18], [19]. Briefly, stably transfected T-Rex-HEK-293 cells expressing AeKir1 channels were cultured overnight in 384-well plates (20,000 cells/20 µL/well black-walled, clear-bottomed BD PureCoat amine-coated plates (BD, Bedford, MA) with a plating media containing DMEM, 10% dialyzed FBS and 1 µg/mL tetracycline. The next day, the cell culture medium was replaced with a dye-loading solution containing assay buffer (Hanks Balanced Salt Solution with 20 mM HEPES, pH 7.3), 0.01% (w/v) Pluronic F-127 (Life Technologies, Carlsbad, CA), and 1.2 µM of the thallium-sensitive dye Thallos-AM (TEFlabs, Austin, TX). Following 1 hr incubation at room temperature, the dye-loading solution was washed from the plates and replaced with 20 µL/well of assay buffer. […] Tl^+ flux data were analyzed as previously described, [21], [22] using a combination of Excel (Microsoft Corp, Redmond, WA) with XLfit add-in (IDBS, Guildford, Surrey, UK) and OriginPro (OriginLab, Northampton, MA) software. […] The slope of the fluorescence increase beginning 5 s after Tl^+ addition and ending 15 s after Tl^+ addition was calculated.

Chain of AeKir1 (L0EQS9 entry or part of it): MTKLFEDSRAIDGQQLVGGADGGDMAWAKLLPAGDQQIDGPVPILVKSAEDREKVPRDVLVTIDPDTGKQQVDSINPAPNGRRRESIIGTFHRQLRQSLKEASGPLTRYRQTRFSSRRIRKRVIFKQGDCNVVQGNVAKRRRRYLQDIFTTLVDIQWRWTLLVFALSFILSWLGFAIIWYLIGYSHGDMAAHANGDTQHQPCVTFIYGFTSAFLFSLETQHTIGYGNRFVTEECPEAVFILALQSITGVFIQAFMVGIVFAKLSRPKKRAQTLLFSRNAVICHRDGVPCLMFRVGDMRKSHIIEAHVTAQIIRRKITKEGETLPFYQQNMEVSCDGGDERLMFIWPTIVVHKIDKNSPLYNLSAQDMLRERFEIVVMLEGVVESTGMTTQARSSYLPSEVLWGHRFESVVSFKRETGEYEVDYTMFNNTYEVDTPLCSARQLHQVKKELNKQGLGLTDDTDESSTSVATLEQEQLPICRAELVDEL

**Q.** How did the “Hill coefficient (nH)” value (AeKir1; 95% CI: 0.8–1.3) turn out when CCC(=O)N1c2ccc(S(=O)(=O)Nc3cccc(OC)c3)cc2CC1C (stereo not drawn) [VU625, N-(3-methoxyphenyl)-2-methyl-1-propionylindoline-5-sulfonamide] was run?
**A.** The value was 1.02.

**Q.** And the IC50 (AeKir1; T-REx-HEK293 cells, 95% CI: 75.4–124.2 nM, n = 4–6)?
**A.** Its IC50 is 96.8 nM.

**Q.** And the IC50 (Kir2.3)?
**A.** Its IC50 is greater than 30000 nM.
